Assay results reported in US11149011B2, “Compounds and methods for IDO and TDO modulation, and indications therefor” (Plexxikon Inc., priority 2018, dated 2021).

Experiments:
TDO = biological target: T1, TDO (Homo sapiens, UniProt P48775); test: TDO enzymatic assay; conditions: geometric mean; read-out: TDO GMean: IC50 (μM) (Biochemical Assay)
T1 construct: His tag (N); made in house; host or cells: E. coli
Method in brief: (§1)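 Kynurenine formed after TCA hydrolysis (30 min, 50 °C) was quantified relative to full-reaction and no-enzyme controls, and IC50s were fitted. TDO reactions used 1 nM enzyme with 350 μM Trp and 0.4 μM methylene blue for 70 min; IDO reactions used 6 nM enzyme, 10 μM Trp, 5 μM methylene blue for 20 min; both at pH 6.5, room temperature.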

[1] = biological target: T2, IDO1-expressing HEK293 cell clones (Homo sapiens, UniProt P14902); test: Cell based kynurenine assay, IDO1-expressing HEK293 cell clones; conditions: HEK293 cells, 24 hours of incubation, geometric mean; read-out: HEK293 IDO1 Kynurenine GMean IC50 (μM) (Cellular Assay)
T2 construct: expressed in transfected cells; host or cells: HEK293
T2 sequence (P14902 whole entry): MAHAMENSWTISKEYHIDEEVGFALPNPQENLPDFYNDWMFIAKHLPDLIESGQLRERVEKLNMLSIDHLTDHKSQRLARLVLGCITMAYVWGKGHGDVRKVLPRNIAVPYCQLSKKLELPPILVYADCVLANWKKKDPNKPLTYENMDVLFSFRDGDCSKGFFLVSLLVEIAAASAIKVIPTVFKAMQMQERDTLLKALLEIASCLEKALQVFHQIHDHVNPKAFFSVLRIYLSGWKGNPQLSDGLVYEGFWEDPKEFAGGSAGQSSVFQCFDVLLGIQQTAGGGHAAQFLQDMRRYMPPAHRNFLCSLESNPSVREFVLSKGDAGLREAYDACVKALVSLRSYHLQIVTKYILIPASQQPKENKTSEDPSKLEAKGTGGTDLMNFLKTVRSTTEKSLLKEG
Method in brief: (§2)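 IC50s come from nonlinear regression of % inhibition of kynurenine in culture supernatant after 24 hours of compound exposure. Controls were 0.2% DMSO-treated cells and media alone. Cells were stable human IDO1- or TDO-expressing HEK293 clones (CMV promoter), plated at 2.5×10^4 per well.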

[2] = biological target: T3, TDO-expressing HEK293 cell clones (Homo sapiens, UniProt P48775); test: Cell based kynurenine assay, TDO-expressing HEK293 cell clones; conditions: HEK293 cells, 24 hours of incubation, geometric mean; read-out: HEK293 TDO Kynurenine GMean IC50 (μM) (Cellular Assay)
T3 construct: expressed in transfected cells; host or cells: HEK293
T3 sequence (P48775 whole entry): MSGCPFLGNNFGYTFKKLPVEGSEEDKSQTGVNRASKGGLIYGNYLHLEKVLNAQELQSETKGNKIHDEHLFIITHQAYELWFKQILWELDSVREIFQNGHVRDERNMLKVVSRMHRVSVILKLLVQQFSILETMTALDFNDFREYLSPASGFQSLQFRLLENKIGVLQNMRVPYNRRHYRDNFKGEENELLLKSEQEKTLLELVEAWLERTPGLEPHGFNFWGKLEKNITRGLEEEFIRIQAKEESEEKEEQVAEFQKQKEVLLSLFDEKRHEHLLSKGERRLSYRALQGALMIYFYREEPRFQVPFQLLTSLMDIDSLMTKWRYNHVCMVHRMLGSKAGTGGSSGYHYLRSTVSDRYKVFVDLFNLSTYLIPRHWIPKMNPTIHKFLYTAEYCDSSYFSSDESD
Method in brief: as §2

IDO1 = biological target: T4, IDO1 (Homo sapiens, UniProt P14902); test: IDO enzymatic assay; type: biochemical; conditions: geometric mean; read-out: IDO1 GMean: IC50 (μM) (Biochemical Assay)
T4 construct: His tag (N); made in house; host or cells: E. coli
T4 sequence (P14902 whole entry): as the sequence (P14902 whole entry) above
Method in brief: as §1

T1 sequence (P48775 whole entry): as the sequence (P48775 whole entry) above

SMILES | IC50 (TDO) [µM] | IC50 [1] [µM] | IC50 [2] [µM] | IC50 (IDO1) [µM]
CC(C)(C1CCN(C(=O)CO)CC1)[C@H](O)c1cc(Cl)cc2[nH]ncc12 [Compound P-0145, (S)-1-(4-(1-(6-chloro-1H-indazol-4-yl)-1-hydroxy-2-methylpropan-2-yl)piperidin-1-yl)-2-hydroxyethan-1-one] | 0.0001 to 10 | > 10 | 0.0001 to 10 | 0.0001 to 10
CC(C)(C)OC(=O)N1CCC(C(C)(C)[C@@H](O)c2cc(Cl)cc3[nH]ncc23)CC1 [Compound P-0144, tert-butyl (R)-4-(1-(6-chloro-1H-indazol-4-yl)-1-hydroxy-2-methylpropan-2-yl)piperidine-1-carboxylate] | 0.0001 to 10 | > 10 | 0.0001 to 10 | 0.0001 to 10
COCC(=O)N1CCC(C(F)(F)C(=O)c2c(F)c(Cl)cc3cn[nH]c23)CC1 [Compound P-0034, 1-(5-chloro-6-fluoro-1H-indazol-7-yl)-2,2-difluoro-2-(1-(2-methoxyacetyl)piperidin-4-yl)ethan-1-one] | 0.0001 to 10 | 0.0001 to 10 | 0.0001 to 10 | 0.0001 to 10
CC(C)(C1CCN(C(=O)CC(F)(F)F)CC1)C(O)c1cc(Cl)cc2[nH]ncc12 (stereo not shown) [Compound P-0051, 1-(4-(1-(6-chloro-1H-indazol-4-yl)-1-hydroxy-2-methylpropan-2-yl)piperidin-1-yl)-3,3,3-trifluoropropan-1-one] | 0.0001 to 10 | 0.0001 to 10 | 0.0001 to 10 | 0.0001 to 10

Continued, values first:

IC50 (TDO) [µM] | IC50 [1] [µM] | IC50 [2] [µM] | IC50 (IDO1) [µM] | SMILES
0.0001 to 10 | 0.0001 to 10 | 0.0001 to 10 | 0.0001 to 10 | CC(C)(C1CCN(C(=O)NCc2ccc(C#N)cc2)CC1)C(O)c1cc(Cl)cc2[nH]ncc12 (stereo not shown) [Compound P-0118, 4-(1-(6-chloro-1H-indazol-4-yl)-1-hydroxy-2-methylpropan-2-yl)-N-(4-cyanobenzyl)piperidine-1-carboxamide]
0.0001 to 10 | > 10 | 0.0001 to 10 | 0.0001 to 10 | CC(C)(C1CCN(C(=O)C2CC2)CC1)C(O)c1cc(Cl)cc2[nH]ncc12 (stereo not shown) [Compound P-0046, (4-(1-(6-chloro-1H-indazol-4-yl)-1-hydroxy-2-methylpropan-2-yl)piperidin-1-yl)(cyclopropyl)methanone]
0.0001 to 10 | 0.0001 to 10 | 0.0001 to 10 | 0.0001 to 10 | CC(C)(C1CCN(C(=O)NCC2CCC2)CC1)C(O)c1cc(Cl)cc2[nH]ncc12 (stereo not shown) [Compound P-0092, 4-(1-(6-chloro-1H-indazol-4-yl)-1-hydroxy-2-methylpropan-2-yl)-N-(cyclobutylmethyl)piperidine-1-carboxamide]
